Measurements published in ChEMBL document CHEMBL1136276, “Alpha-fluoro-substituted thalidomide analogues” (Bioorg Med Chem Lett, 2003).

How the values were obtained:
[1] = Inhibition of TNF-alpha production in LPS stimulated human PBMC at 360 uM; format: functional
[2] = Inhibition of TNF-alpha production in LPS stimulated human PBMC; format: functional

SMILES	inhibition at 360 µM [1] [%]	IC50 [2] [nM]
O=C1CCC(F)(N2C(=O)c3ccccc3C2=O)C(=O)N1 (stereo not drawn)	80	–
Nc1cccc2c1C(=O)N(C1(F)CCC(=O)NC1=O)C2=O (stereo not drawn)	–	230
Nc1cccc2c1C(=O)N(C1CCC(=O)NC1=O)C2=O (stereo not drawn) [POMALIDOMIDE]	–	230
